Reference: patent US8551721B2, “Bioluminescent detection of cyanohydroxy benzothiazole compounds” (Promega Corporation, priority 2008, dated 2013)

Experiments:
[1] = system: UGT isozymes; details: cited from earlier work; for Isozymes Modulated: isozymes currently reported in the literature to be modulated by the compound
[2] = target: T1, GST A1-1 (Homo sapiens, UniProt P08263); experiment: Utilization of benzothiazole by GST A1-1; format: biochemical; details: 55 minutes at room temperature; for light produced with GST A1-1 minus no enzyme, concentrated substrate: concentrated substrate solution (approximately 1 mg/mL diluted 1:100), glutathione; for light produced with GST A1-1 minus no enzyme, diluted substrate: substrate solution diluted 1:3.1, glutathione
T1 sequence (P08263 1-222): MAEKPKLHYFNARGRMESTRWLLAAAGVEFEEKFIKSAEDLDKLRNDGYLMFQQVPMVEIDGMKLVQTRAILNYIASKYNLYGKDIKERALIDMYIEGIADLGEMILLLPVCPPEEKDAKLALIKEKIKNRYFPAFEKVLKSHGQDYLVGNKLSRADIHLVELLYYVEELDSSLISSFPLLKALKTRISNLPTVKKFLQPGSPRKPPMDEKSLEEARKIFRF
Description: (§1) A small amount of compound 934-37 was dissolved in DMSO to produce a solution approximately 1 mg/mL. This solution was diluted 1:100 (v/v) into 50 mM HEPES buffer pH 7.5 to produce a substrate solution. Twenty μL of this solution was placed in 10 wells of a 96 well white luminometer plate (Promega part Z3291), then the solution was diluted 1:3.1 and 20 μL of the dilution was placed into another 10 wells in the luminometer plate.
(§2) D-Cysteine, 4 mg (Sigma Chemical Corp.; C8005-1 g, 017K1034) was dissolved into 1 mL of 50 mM HEPES buffer pH 7.5, then 4 μL added to 4 of the wells containing the substrate solution and 4 of the wells with diluted substrate solution to convert compound 934-37 to the corresponding luciferin derivative. The structures of these compounds are shown below.
(§3) A sample of GST A1-1 (1.2 mg/mL) and 100 μL of 100 mM glutathione in water was diluted into 5 mL of 50 mM HEPES pH 7.5, then 25 μL added to: two of the wells with unconverted, concentrated compound 934-37; 2 wells with concentrated and converted compound 934-37; and two of the wells with unconverted, diluted compound 934-37 and 2 of the wells with converted, diluted compound 934-37.
(§4) Glutathione (100 μL of 100 mM glutathione) had been diluted to 5 mL with 50 mM HEPES buffer pH 7.5, then 25 μL added to the remaining wells of converted and unconverted compound 934-37 in concentrated and diluted solution.
(§5) After 55 minutes at room temperature, 4 μL of the D-cysteine solution above was added to all wells that had not received cysteine before, then 50 μL of P450 Glo Luciferin Detection Reagent (made by dissolving a vial of Promega Luciferin Detection Reagent (Promega Part #V859B) with a vial of Promega P450-Glo Buffer (Promega Part #V865B). The plate was then placed into a Glo Max luminometer (Promega Corp.) and the light read after 15 minutes of incubation. The values obtained were averaged and the average value of the light produced from the wells given no enzyme were then subtracted from the average of the light produced with enzyme.

[3] = target: T2, GST M1-1 (Homo sapiens, UniProt P09488); experiment: Utilization of benzothiazole by GST M1-1; format: biochemical; details: 55 minutes at room temperature; for light produced with GST M1-1 minus no enzyme, concentrated substrate: concentrated substrate solution (approximately 1 mg/mL diluted 1:100), glutathione; for light produced with GST M1-1 minus no enzyme, diluted substrate: substrate solution diluted 1:3.1, glutathione
T2 sequence (P09488 1-218): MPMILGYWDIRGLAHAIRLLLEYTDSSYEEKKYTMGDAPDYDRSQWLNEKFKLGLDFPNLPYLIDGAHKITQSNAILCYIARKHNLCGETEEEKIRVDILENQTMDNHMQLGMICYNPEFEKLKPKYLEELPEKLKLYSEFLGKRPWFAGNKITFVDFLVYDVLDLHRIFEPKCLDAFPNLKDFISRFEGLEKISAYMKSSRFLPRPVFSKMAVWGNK
Description: as §1, §2
as §3, with “M1-1” for “A1-1”, “glutathione” for “glutathione in water”
as §4, §5

[4] = target: T3, UGT 1A4 (Homo sapiens, UniProt P22310); experiment: UGT activity: utilization of substrate by recombinant UGT 1A4 Supersomes; format: biochemical; details: 2 hour incubation at 37° C., plus vs minus UDPGA
T3 construct: purchased BD Gentest; host or cells: insect cells (microsomes)
T3 sequence (P22310 29-534): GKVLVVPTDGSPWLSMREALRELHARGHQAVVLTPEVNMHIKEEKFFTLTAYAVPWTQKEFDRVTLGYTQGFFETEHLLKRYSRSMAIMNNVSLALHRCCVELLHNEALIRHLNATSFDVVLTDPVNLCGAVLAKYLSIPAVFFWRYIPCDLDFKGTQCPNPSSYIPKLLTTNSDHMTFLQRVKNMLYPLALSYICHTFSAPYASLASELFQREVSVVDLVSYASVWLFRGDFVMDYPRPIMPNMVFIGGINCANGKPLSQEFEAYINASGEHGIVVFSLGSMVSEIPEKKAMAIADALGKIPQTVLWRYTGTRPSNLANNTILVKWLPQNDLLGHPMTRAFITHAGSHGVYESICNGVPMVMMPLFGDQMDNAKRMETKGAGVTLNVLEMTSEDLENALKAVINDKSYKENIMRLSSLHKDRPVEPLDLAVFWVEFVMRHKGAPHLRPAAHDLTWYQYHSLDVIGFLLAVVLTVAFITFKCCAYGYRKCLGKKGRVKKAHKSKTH
Description: The invention includes a method of determining activity of the uridine 5′-diphospho-glucuronosyltransferase (UDP-glucuronosyltransferase, or UGT) family enzymes in vitro. Briefly, UGT enzymes from overexpressed insect microsomes (Supersomes™, BD Gentest™) or animal tissue microsomes (Xenotech, BD Gentest™) were incubated with a cyanobenzothiazole substrate of the invention and the cofactor UDP-glucuronic acid (UDPGA) at 37° C. in buffer at physiological pH containing MgCl2 and alamethicin (typically, 50 mM TES, pH 7.5, 8 mM MgCl2, 4 mM UDPGA (Sigma) and 25 μg/mL alamethicin (Sigma)). Following the UGT enzyme reaction, an equal volume of P450-Glo Luciferin Detection Reagent (Promega) containing 15-30 mM D-cysteine-HCl.H2O (Sigma) was added and the plate was mixed and incubated at room temperature, typically for 20-30 minutes. P450-Glo Luciferin Detection Reagent can be prepared by dissolving a vial of Promega Luciferin Detection Reagent (Promega Part #V859B) with a vial of Promega P450-Glo Buffer (Promega Part #V865B).
(§6) During this incubation, the cysteine reacts with the cyanobenzathiozole substrate to yield a D-luciferin derivative. […] Therefore, activity of the UGT enzyme can be measured by analyzing the difference (lower or no output) in relative light units (RLU) of a sample in which glucuronidation occurs compared to a sample that was run under the same conditions with no added UDPGA cofactor.
In this example, a series of 12 recombinant UGTs expressed in insect microsomes (Supersomes™, BD Gentest™), as well as the control microsomes not expressing the UGT enzyme, were incubated with compound 3138, compound 3478, or compound 3165 as substrates, with or without the UDPGA co-factor. […]
Reactions were assembled in a white 96-well plate. […] After the incubation was completed, the plate was read on a Veritas™ luminometer (Turner BioSystems, Inc.; Sunnyvale, Calif.). […]

[5] = system: endogenously expressed UGT isozymes in mammalian microsomes; experiment: Utilization of compounds by mammalian microsomes; format: biochemical; details: 0.2 mg/mL microsomes, 50 μM compound, reactions run for 2 hours
Description: The invention includes a method of determining activity of the uridine 5′-diphospho-glucuronosyltransferase (UDP-glucuronosyltransferase, or UGT) family enzymes in vitro. […] Following the UGT enzyme reaction, an equal volume of P450-Glo Luciferin Detection Reagent (Promega) containing 15-30 mM D-cysteine-HCl.H2O (Sigma) was added and the plate was mixed and incubated at room temperature, typically for 20-30 minutes. P450-Glo Luciferin Detection Reagent can be prepared by dissolving a vial of Promega Luciferin Detection Reagent (Promega Part #V859B) with a vial of Promega P450-Glo Buffer (Promega Part #V865B).
as §6
Tissue microsomes were obtained from Xenotech LLC or BD Gentest.

[6] = system: human liver microsomes; experiment: Utilization of compound 3165 by human liver, renal and intestinal microsomes; format: biochemical; details: 2 hours at 37° C., 0.2 mg/mL microsomes, 50 μM compound
Description: (§7) The invention includes a method of determining activity of the uridine 5′-diphospho-glucuronosyltransferase (UDP-glucuronosyltransferase, or UGT) family enzymes in vitro. Briefly, UGT enzymes from overexpressed insect microsomes (Supersomes™, BD Gentest™) or animal tissue microsomes (Xenotech, BD Gentest™) were incubated with a cyanobenzothiazole substrate of the invention and the cofactor UDP-glucuronic acid (UDPGA) at 37° C. in buffer at physiological pH containing MgCl2 and alamethicin (typically, 50 mM TES, pH 7.5, 8 mM MgCl2, 4 mM UDPGA (Sigma) and 25 μg/mL alamethicin (Sigma)). […]
as §6
(§8) The ability of endogenously expressed UGT isozymes to utilize compounds 3138 and 3165 as substrates was determined in a similar manner to the assays with recombinant microsomes (Example 1). […]

[7] = system: rat liver microsomes; experiment: Utilization of compound 3165 by rat liver microsomes; format: biochemical; details: 2 hours at 37° C., 0.2 mg/mL microsomes, 50 μM compound
Description: as §7, §6, §8

[8] = system: mouse liver microsomes; experiment: Utilization of compound 3165 by mouse liver microsomes; format: biochemical; details: 2 hours at 37° C., 0.2 mg/mL microsomes, 50 μM compound
Description: as §7, §6, §8

SMILES: O=c1ccc2ccc(O)cc2o1 [Umbelliferne]
- Isozymes Modulated [1]: Substrate of most isozymes

SMILES: Cc1cc(S(=O)(=O)Oc2ccc3nc(C4=N[C@@H](C(=O)O)CS4)sc3c2)ccc1[N+](=O)[O-] [converted compound 934-37]
- light produced with GST A1-1 minus no enzyme, concentrated substrate [2]: 6,410 RLU
- light produced with GST A1-1 minus no enzyme, diluted substrate [2]: 6,462 RLU
- light produced with GST M1-1 minus no enzyme, concentrated substrate [3]: 315,759 RLU
- light produced with GST M1-1 minus no enzyme, diluted substrate [3]: 213,920 RLU

SMILES: O=c1cc(C(F)(F)F)c2ccc(O)cc2o1 [7-hydroxy-4-trifluoromethyl coumarin]
- Isozymes Modulated [1]: Substrate for 1A1, 1A3, 1A6, 1A9, 2B7

SMILES: C=C[C@H]1C[N@@]2CC[C@H]1C[C@@H]2[C@@H](O)c1ccnc2ccc(OC)cc12 [Quinidine]
- Isozymes Modulated [1]: 2B7 and 2B15, others to a lesser extent

SMILES: Cc1cc(S(=O)(=O)Oc2ccc3nc(C#N)sc3c2)ccc1[N+](=O)[O-] [compound 934-37]
- light produced with GST A1-1 minus no enzyme, concentrated substrate [2]: 164,400 RLU
- light produced with GST A1-1 minus no enzyme, diluted substrate [2]: 195,021 RLU
- light produced with GST M1-1 minus no enzyme, concentrated substrate [3]: 41,212 RLU
- light produced with GST M1-1 minus no enzyme, diluted substrate [3]: 30,428 RLU

SMILES: Cc1cc(NCc2cccc(N)c2)cc2sc(C#N)nc12 [compound 3165]
- utilization by UGT 1A4 (in words) [4]: only utilized by UGT 1A4
- rate of utilization of compound 3165 by mammalian microsomes (compared with compound 3138) [5]: much slower
- utilization of compound 3165: human liver vs human renal and intestinal microsomes [6]: much higher for human liver microsomes than either human renal or human intestinal microsomes
- utilization of compound 3165 by rat liver microsomes [7]: Activity was also seen for both rat and mouse liver microsomes
- utilization of compound 3165 by mouse liver microsomes [8]: Activity was also seen for both rat and mouse liver microsomes

SMILES: CC(C)c1nc(CN(C)C(=O)N[C@H](C(=O)N[C@@H](Cc2ccccc2)C[C@H](O)[C@H](Cc2ccccc2)NC(=O)OCc2cncs2)C(C)C)cs1 [Ritonavir]
- inhibition of UGT isozymes as reported in the literature ([1]; literature report): inhibits UGT 1A 1 and 1A4, but has little effect on UGT 2B7
